“Also recorded” adds a separate entry of the source. Like-named read-outs stand apart in the source and are kept apart here.
Legend:
BChE from equine serum = target: T1, BChE from equine serum (Equus caballus, UniProt P81908); assay: biochemical; assay type: biochemical; details: for Selectivity Index BChE: IC50 (AChE)/IC50 (BChE); for BChE potency relative to galantamine: comparison of IC50 values; for Cholinesterase selectivity (in words): from selectivity indices, AChE vs BChE; for inhibition at 100 µM: read-out: Percentage Inhibition at 100 µM, BChE, 100 µM
T1 construct: AChE from Electrophorus electricus and BChE from equine serum were purchased from Sigma-Aldrich Co. LLC; purchased Sigma-Aldrich Co. LLC; (St. Louis, MO, USA); host or cells: equine serum
T1 sequence (P81908 whole entry): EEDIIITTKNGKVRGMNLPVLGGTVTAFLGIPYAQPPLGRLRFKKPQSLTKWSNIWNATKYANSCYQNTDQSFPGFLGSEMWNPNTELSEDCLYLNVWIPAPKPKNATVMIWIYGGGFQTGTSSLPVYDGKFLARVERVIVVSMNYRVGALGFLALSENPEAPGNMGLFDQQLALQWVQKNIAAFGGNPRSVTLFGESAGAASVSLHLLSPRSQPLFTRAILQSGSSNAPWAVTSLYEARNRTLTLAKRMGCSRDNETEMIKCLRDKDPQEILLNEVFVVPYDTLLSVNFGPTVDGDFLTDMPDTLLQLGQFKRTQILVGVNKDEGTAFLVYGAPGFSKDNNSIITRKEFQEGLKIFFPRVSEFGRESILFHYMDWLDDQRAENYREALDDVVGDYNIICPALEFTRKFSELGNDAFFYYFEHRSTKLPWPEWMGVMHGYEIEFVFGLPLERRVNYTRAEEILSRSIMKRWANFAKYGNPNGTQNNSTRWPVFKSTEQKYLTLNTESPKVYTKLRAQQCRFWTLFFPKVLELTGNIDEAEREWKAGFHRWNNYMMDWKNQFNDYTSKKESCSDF
Method: (§1) The cholinesterase inhibitory activities of the extracts and fompounds 1–6 were performed as previously described. AChE from Electrophorus electricus and BChE from equine serum were purchased from Sigma-Aldrich Co. LLC. (St. Louis, MO, USA). An amount of 0.1 M of sodium phosphate buffer (pH 8) was added to a 96-well microplate followed by the sample and 1U of the AChE or BChE. Then, 10 mM of 5,5′-dithiobis(2-nitrobenzoic acid) (DTNB) was added followed by 14 mM of acetylthiocholine iodide or S-butyrylthiocholine chloride. The final concentration of DMSO was 1%.

[1] = target: T2, AChE from Electrophorus electricus (Electrophorus electricus, UniProt O42275); assay: biochemical; details: for Selectivity Index AChE: IC50 (BChE)/IC50 (AChE); for inhibition at 100 µM: read-out: Percentage Inhibition at 100 µM, AChE, 100 µM
T2 construct: purchased Sigma-Aldrich Co. LLC; (St. Louis, MO, USA)
T2 sequence (O42275 24-633): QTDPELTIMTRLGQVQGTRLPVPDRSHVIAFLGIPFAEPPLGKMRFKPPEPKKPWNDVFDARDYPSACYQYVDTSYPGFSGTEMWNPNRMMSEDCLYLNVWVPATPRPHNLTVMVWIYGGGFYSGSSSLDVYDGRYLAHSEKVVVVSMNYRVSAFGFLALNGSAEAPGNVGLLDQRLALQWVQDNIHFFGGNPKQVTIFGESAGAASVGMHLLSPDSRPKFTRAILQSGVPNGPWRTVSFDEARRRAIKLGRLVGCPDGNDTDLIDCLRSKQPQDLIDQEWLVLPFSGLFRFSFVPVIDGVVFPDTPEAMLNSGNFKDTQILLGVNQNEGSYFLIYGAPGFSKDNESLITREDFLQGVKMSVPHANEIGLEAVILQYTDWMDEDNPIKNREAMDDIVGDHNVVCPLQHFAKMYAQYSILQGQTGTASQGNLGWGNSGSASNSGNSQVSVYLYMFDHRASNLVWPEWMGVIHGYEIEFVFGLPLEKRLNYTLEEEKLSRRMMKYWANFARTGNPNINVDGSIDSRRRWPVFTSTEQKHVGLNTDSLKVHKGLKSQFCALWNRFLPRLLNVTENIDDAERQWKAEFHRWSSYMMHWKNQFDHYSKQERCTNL
Method: as §1

BChE = target: T3, BChE (Equus caballus, UniProt P81908); assay: Enzyme kinetic study against BChE (Lineweaver-Burk and secondary plots); assay type: biochemical; details: for Mode of inhibition against BChE: Lineweaver-Burk plot
T3 construct: AChE from Electrophorus electricus and BChE from equine serum were purchased from Sigma-Aldrich Co. LLC; purchased Sigma-Aldrich Co. LLC; (St. Louis, MO, USA); host or cells: equine serum
T3 sequence (P81908 whole entry): as the sequence (P81908 whole entry) above
Method: as §1, with “1%. Galanthamine was used as the standard for validation and result comparison. The absorbance was measured using a Tecan Infinite 200 Pro Microplate Spectrometer at 412 nm for 30 min.” for “1%.”
The enzyme kinetic studies of compounds 1 and 2 against BChE were performed in a similar manner to the in vitro BChE inhibition assay. The enzyme inhibition kinetic was carried out in the presence of three concentrations of the inhibitors, compounds 1 and 2, at various concentrations of the substrate, S-butyrylthiocholine chloride by constructing a Lineweaver–Burk plot (reciprocal plots of 1/V versus 1/[S]). The inhibition constant (Ki) was estimated from the secondary plot of the Lineweaver–Burk plot.

| Structure (SMILES) | Selectivity Index BChE (BChE from equine serum) | BChE potency relative to galantamine (BChE from equine serum) | Cholinesterase selectivity (in words) (BChE from equine serum) | IC50 (BChE from equine serum; mean ± SD (n = 3), read-out: IC50 BChE) [µM] | Selectivity Index AChE [1] | IC50 ([1]; mean ± SD (n = 3), read-out: IC50 AChE) [µM] | inhibition at 100 µM ([1]; mean ± SD (n = 3)) [%] | Mode of inhibition against BChE (BChE) | Ki (BChE; derived from secondary plots of Lineweaver-Burk plots, read-out: Inhibition constant Ki against BChE) [µM] | IC50 (BChE from equine serum) [µM] | IC50 [1] [µM] | Ki (BChE) [µM] | Fold higher affinity to BChE compared to compound 1 (BChE; ratio of Ki values) [fold] | inhibition at 100 µM (BChE from equine serum; mean ± SD (n = 3)) [%] |
| --- | --- | --- | --- | --- | --- | --- | --- | --- | --- | --- | --- | --- | --- | --- |
| COc1cc2c(cc1O)C(Cc1ccc(Oc3cc(CC4c5cc(O)c(OC)cc5CCN4C)ccc3OC)cc1)NCC2 (stereo not shown) [Compound 1, N-methyl costaricine] | 6.48 | two-fold more potent than galantamine | BChE selective inhibitors | 3.51 ± 0.8 | 0.15 | 22.8 ± 1.25 | > 70 | mixed-mode inhibitors; also recorded: mixed-mode inhibition | 0.67 | – | – | – | – | – |
| COc1cc2c(cc1O)[C@@H](Cc1ccc(Oc3cc(C[C@H]4NCCc5cc(OC)c(O)cc54)ccc3OC)cc1)NCC2 [Compound 2, costaricine] | 6.03 | two-fold more potent than galantamine | BChE selective inhibitors | – | 0.17 | – | > 70 | mixed-mode inhibitors; also recorded: mixed-mode inhibition | – | 2.9 ± 0.56 | 17.5 ± 2.16 | 0.05 | 13 | – |
| COc1ccc2c(c1OC)-c1c(OC)c(OC)cc3c1C(C2)NCC3 (stereo not shown) [Compound 3, hernagine] | – | – | – | – | – | – | < 10 | – | – | 32.9 ± 0.99 | – | – | – | 88.87 ± 0.56 |
| COc1ccc2c(c1OC)-c1c(OC)c(OC)cc3c1C(C2)N(C)CC3 (stereo not shown) [Compound 4, N-methyl hernagine] | – | – | – | – | – | – | 23.1 ± 8.39 | – | – | 49.7 ± 3.95 | – | – | – | 77.8 ± 3.73 |
| COc1cc2c3c(c1O)-c1c(ccc(OC)c1OC)C[C@@H]3N(C)CC2 [Compound 5, corydine] | – | – | – | – | – | – | 29.7 ± 1.85 | – | – | 52.9 ± 4.11 | – | – | – | 77.9 ± 1.73 |

— PMC10341795, “N-Methyl Costaricine and Costaricine, Two Potent Butyrylcholinesterase Inhibitors from Alseodaphne pendulifolia Gamb” (International Journal of Molecular Sciences, 2023)
